From patent US20230085307A1, “PYRIDAZINONE COMPOUND AND HERBICIDE” (NISSAN CHEMICAL CORPORATION, priority 2019, published 2023)

How the values were obtained:
chickweed = test: Test Example 5: herbicidal effect by foliage application, plastic box (Table 20, symbol P); type: in vivo, common chickweed (Stellaria media); details: foliage application; for P: chickweed, herbicidal effect grade: three weeks after application
Summary of the method: (§1)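 Foliar spray test: emulsion formulation diluted in water to a set application rate, sprayed onto 14-day-old plants raised in diluvial soil at 25° C to 30° C under glass. Both herbicidal effect and crop effect rated visually three weeks later.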

persian speedwell = test: Test Example 5: herbicidal effect by foliage application, plastic box (Table 20, symbol R); type: in vivo, Persian speedwell (Veronica persica); details: foliage application; for R: persian speedwell, herbicidal effect grade: three weeks after application
Summary of the method: as §1

windgrass = test: Test Example 5: herbicidal effect by foliage application, plastic box (Table 20, symbol L); type: in vivo, windgrass (Apera spica-venti); details: foliage application; for L: windgrass, herbicidal effect grade: three weeks after application
Summary of the method: as §1

rice flat sedge = test: Test Example 3: herbicidal effect by foliage application, Wagner pot (Table 18, symbol E); type: in vivo, rice flat sedge (Cyperus iria); details: amount of applied herbicide 320 g/ha
Summary of the method: (§2)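 Plants were sown in alluvial soil held under 0.1–0.5 cm standing water and grown 14 days in a greenhouse at 25–30 °C. An emulsifiable formulation, water-diluted to the set dose, was then sprayed onto the foliage, and effects were scored three weeks later using previously defined criteria.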

blackgrass = test: Test Example 5: herbicidal effect by foliage application, plastic box (Table 20, symbol J); type: in vivo, blackgrass (Alopecurus myosuroides); details: foliage application; for J: blackgrass, herbicidal effect grade: three weeks after application
Summary of the method: as §1

wild oat = test: Test Example 5: herbicidal effect by foliage application, plastic box (Table 20, symbol I); type: in vivo, wild oat (Avena fatua); details: foliage application; for I: wild oat, herbicidal effect grade: three weeks after application
Summary of the method: as §1

green foxtail = test: Test Example 5: herbicidal effect by foliage application, plastic box (Table 20, symbol G); type: in vivo, green foxtail (Setaria viridis); details: foliage application; for G: green foxtail, herbicidal effect grade: three weeks after application
Summary of the method: as §1

redroot pigweed = test: Test Example 5: herbicidal effect by foliage application, plastic box (Table 20, symbol N); type: in vivo, redroot pigweed (Amaranthus retroflexus); details: foliage application; for N: redroot pigweed, herbicidal effect grade: three weeks after application
Summary of the method: as §1

Italian ryegrass = test: Test Example 5: herbicidal effect by foliage application, plastic box (Table 20, symbol K); type: in vivo, Italian ryegrass (Lolium multiflorum); details: foliage application; for K: Italian ryegrass, herbicidal effect grade: three weeks after application
Summary of the method: as §1

barnyard grass [1] = test: Test Example 3: herbicidal effect by foliage application, Wagner pot (Table 18, symbol H); type: in vivo, barnyard grass (Echinochloa crus-galli); details: amount of applied herbicide 320 g/ha
Summary of the method: as §2

lambsquarters = test: Test Example 5: herbicidal effect by foliage application, plastic box (Table 20, symbol O); type: in vivo, lambsquarters (Chenopodium album); details: foliage application; for O: lambsquarters, herbicidal effect grade: three weeks after application
Summary of the method: as §1

southern crabgrass = test: Test Example 5: herbicidal effect by foliage application, plastic box (Table 20, symbol F); type: in vivo, southern crabgrass (Digitaria ciliaris); details: foliage application; for F: southern crabgrass, herbicidal effect grade: three weeks after application
Summary of the method: as §1

barnyard grass [2] = test: Test Example 5: herbicidal effect by foliage application, plastic box (Table 20, symbol H); type: in vivo, barnyard grass (Echinochloa crus-galli); details: foliage application; for H: barnyard grass, herbicidal effect grade: three weeks after application
Summary of the method: as §1

Chinese sprangletop = test: Test Example 3: herbicidal effect by foliage application, Wagner pot (Table 18, symbol D); type: in vivo, chinese sprangletop (Leptochloa chinensis); details: amount of applied herbicide 320 g/ha
Summary of the method: as §2

velvetleaf = test: Test Example 5: herbicidal effect by foliage application, plastic box (Table 20, symbol M); type: in vivo, velvetleaf (Abutilon theophrasti); details: foliage application; for M: velvetleaf, herbicidal effect grade: three weeks after application
Summary of the method: as §1

[3] = 320 g/ha, evaluated three weeks after application
[4] = AAH 320 g/ha, evaluated three weeks after application

| SMILES | herbicidal effect on E: rice flat sedge (rice flat sedge) | herbicidal effect on H: barnyard grass (barnyard grass [1]) | herbicidal effect on D: Chinese sprangletop (Chinese sprangletop) | P: chickweed, herbicidal effect grade (chickweed; 320 g/ha) | R: persian speedwell, herbicidal effect grade (persian speedwell; 320 g/ha) | L: windgrass, herbicidal effect grade (windgrass; 320 g/ha) | J: blackgrass, herbicidal effect grade (blackgrass; 320 g/ha) | I: wild oat, herbicidal effect grade (wild oat; 320 g/ha) | G: green foxtail, herbicidal effect grade (green foxtail; 320 g/ha) | N: redroot pigweed, herbicidal effect grade (redroot pigweed; 320 g/ha) | K: Italian ryegrass, herbicidal effect grade (Italian ryegrass; 320 g/ha) | O: lambsquarters, herbicidal effect grade (lambsquarters; 320 g/ha) | F: southern crabgrass, herbicidal effect grade (southern crabgrass; 320 g/ha) | H: barnyard grass, herbicidal effect grade (barnyard grass [2]; 320 g/ha) | M: velvetleaf, herbicidal effect grade (velvetleaf; 320 g/ha) | further results |
| --- | --- | --- | --- | --- | --- | --- | --- | --- | --- | --- | --- | --- | --- | --- | --- | --- |
| Cc1nn(C)c(=O)c(-c2c(-c3cccc(OC(F)F)c3)sc3ccc(F)cc23)c1O [2-234] | 0 (Herbicidal rate of 5% or less (almost no effect)) | 3 (Herbicidal rate of 40% or more and less than 70%) | 0 (Herbicidal rate of 5% or less (almost no effect)) | – | – | – | – | – | – | – | – | – | – | – | – | herbicidal effect on P: chickweed (criteria 0-5) (chickweed; [3]): 5 (Herbicidal rate of 90% or more (almost completely withered)); herbicidal effect on R: persian speedwell (criteria 0-5) (persian speedwell; [3]): 5 (Herbicidal rate of 90% or more (almost completely withered)); herbicidal effect on L: windgrass (criteria 0-5) (windgrass; [3]): 0 (Herbicidal rate of 5% or less (almost no effect)); herbicidal effect on J: blackgrass (criteria 0-5) (blackgrass; [3]): 0 (Herbicidal rate of 5% or less (almost no effect)); herbicidal effect on I: wild oat (criteria 0-5) (wild oat; [3]): 0 (Herbicidal rate of 5% or less (almost no effect)); herbicidal effect on G: green foxtail (criteria 0-5) (green foxtail; [3]): 0 (Herbicidal rate of 5% or less (almost no effect)); herbicidal effect on N: redroot pigweed (criteria 0-5) (redroot pigweed; [3]): 4 (Herbicidal rate of 70% or more and less than 90%); herbicidal effect on K: Italian ryegrass (criteria 0-5) (Italian ryegrass; [3]): 0 (Herbicidal rate of 5% or less (almost no effect)); herbicidal effect on O: lambsquarters (criteria 0-5) (lambsquarters; [3]): 2 (Herbicidal rate of 20% or more and less than 40%); herbicidal effect on F: southern crabgrass (criteria 0-5) (southern crabgrass; [3]): 0 (Herbicidal rate of 5% or less (almost no effect)); herbicidal effect on H: barnyard grass (criteria 0-5) (barnyard grass [2]; [3]): 0 (Herbicidal rate of 5% or less (almost no effect)); herbicidal effect on M: velvetleaf (criteria 0-5) (velvetleaf; [3]): 0 (Herbicidal rate of 5% or less (almost no effect)) |
| CC(=O)COc1c(C)nn(C)c(=O)c1-c1c(-c2ccc(OC(F)F)cc2)sc2ccc(F)cc12 [2-304] | 3 (Herbicidal rate of 40% or more and less than 70%) | 3 (Herbicidal rate of 40% or more and less than 70%) | 3 (Herbicidal rate of 40% or more and less than 70%) | – | – | – | – | – | – | – | – | – | – | – | – | P: chickweed, herbicidal effect (criteria 0-5) (chickweed; [4]): 5 (Herbicidal rate of 90% or more (almost completely withered)); R: persian speedwell, herbicidal effect (criteria 0-5) (persian speedwell; [4]): 5 (Herbicidal rate of 90% or more (almost completely withered)); L: windgrass, herbicidal effect (criteria 0-5) (windgrass; [4]): 0 (Herbicidal rate of 5% or less (almost no effect)); J: blackgrass, herbicidal effect (criteria 0-5) (blackgrass; [4]): 0 (Herbicidal rate of 5% or less (almost no effect)); I: wild oat, herbicidal effect (criteria 0-5) (wild oat; [4]): 0 (Herbicidal rate of 5% or less (almost no effect)); G: green foxtail, herbicidal effect (criteria 0-5) (green foxtail; [4]): 0 (Herbicidal rate of 5% or less (almost no effect)); N: redroot pigweed, herbicidal effect (criteria 0-5) (redroot pigweed; [4]): 5 (Herbicidal rate of 90% or more (almost completely withered)); K: Italian ryegrass, herbicidal effect (criteria 0-5) (Italian ryegrass; [4]): 0 (Herbicidal rate of 5% or less (almost no effect)); O: lambsquarters, herbicidal effect (criteria 0-5) (lambsquarters; [4]): 3 (Herbicidal rate of 40% or more and less than 70%); F: southern crabgrass, herbicidal effect (criteria 0-5) (southern crabgrass; [4]): 0 (Herbicidal rate of 5% or less (almost no effect)); H: barnyard grass, herbicidal effect (criteria 0-5) (barnyard grass [2]; [4]): 0 (Herbicidal rate of 5% or less (almost no effect)); M: velvetleaf, herbicidal effect (criteria 0-5) (velvetleaf; [4]): 0 (Herbicidal rate of 5% or less (almost no effect)) |
| COc1ccccc1-c1sc2ccc(F)cc2c1-c1c(O)c(C)nn(Cc2ccccc2)c1=O [2-438] | 2 (Herbicidal rate of 20% or more and less than 40%) | 2 (Herbicidal rate of 20% or more and less than 40%) | 0 (Herbicidal rate of 5% or less (almost no effect)) | 0 (Herbicidal rate of 5% or less (almost no effect)) | 0 (Herbicidal rate of 5% or less (almost no effect)) | 0 (Herbicidal rate of 5% or less (almost no effect)) | 0 (Herbicidal rate of 5% or less (almost no effect)) | 0 (Herbicidal rate of 5% or less (almost no effect)) | 0 (Herbicidal rate of 5% or less (almost no effect)) | 3 (Herbicidal rate of 40% or more and less than 70%) | 0 (Herbicidal rate of 5% or less (almost no effect)) | 0 (Herbicidal rate of 5% or less (almost no effect)) | 0 (Herbicidal rate of 5% or less (almost no effect)) | 0 (Herbicidal rate of 5% or less (almost no effect)) | 0 (Herbicidal rate of 5% or less (almost no effect)) | – |
| Cc1nn(C)c(=O)c(-c2c(-c3ccc(Oc4ncc(C(F)(F)F)cc4Cl)cc3)sc3ccc(F)cc23)c1O [2-467] | 4 (Herbicidal rate of 70% or more and less than 90%) | 3 (Herbicidal rate of 40% or more and less than 70%) | 4 (Herbicidal rate of 70% or more and less than 90%) | 3 (Herbicidal rate of 40% or more and less than 70%) | 4 (Herbicidal rate of 70% or more and less than 90%) | 5 (Herbicidal rate of 90% or more (almost completely withered)) | 0 (Herbicidal rate of 5% or less (almost no effect)) | 0 (Herbicidal rate of 5% or less (almost no effect)) | 2 (Herbicidal rate of 20% or more and less than 40%) | 3 (Herbicidal rate of 40% or more and less than 70%) | 0 (Herbicidal rate of 5% or less (almost no effect)) | 4 (Herbicidal rate of 70% or more and less than 90%) | 0 (Herbicidal rate of 5% or less (almost no effect)) | 1 (Herbicidal rate of 5% or more and less than 20%) | 1 (Herbicidal rate of 5% or more and less than 20%) | – |
| COc1ccccc1-c1sc2cc(F)ccc2c1-c1c(OC(=O)c2ccccc2C)c(C)nn(C)c1=O [3-022] | 0 (Herbicidal rate of 5% or less (almost no effect)) | 4 (Herbicidal rate of 70% or more and less than 90%) | 2 (Herbicidal rate of 20% or more and less than 40%) | 3 (Herbicidal rate of 40% or more and less than 70%) | 0 (Herbicidal rate of 5% or less (almost no effect)) | 0 (Herbicidal rate of 5% or less (almost no effect)) | 0 (Herbicidal rate of 5% or less (almost no effect)) | 0 (Herbicidal rate of 5% or less (almost no effect)) | 0 (Herbicidal rate of 5% or less (almost no effect)) | 3 (Herbicidal rate of 40% or more and less than 70%) | 0 (Herbicidal rate of 5% or less (almost no effect)) | 0 (Herbicidal rate of 5% or less (almost no effect)) | 0 (Herbicidal rate of 5% or less (almost no effect)) | 0 (Herbicidal rate of 5% or less (almost no effect)) | 0 (Herbicidal rate of 5% or less (almost no effect)) | – |
